The values below come from US20220125772A1, “A2A ANTAGONISTS AS COGNITION AND MOTOR FUNCTION ENHANCERS” (Biotie Therapies, Inc., priority 2010, published 2022).

Holding throughout (type): in vivo, human
Experiment [1] relates to Parkinson's disease (PD) patients. The experiment is described as follows: Go/No-Go (GNG) Test in Parkinson's disease patients, double-blind crossover study. To be noted: for GNG reaction times: vs placebo plus levodopa. An excerpt:
(§1) Continuous performance testing, in various forms, has become a standard clinical procedure. Generally speaking, continuous performance testing evaluates a subject's visual attention by displaying a series of visual stimuli, to which the subject is instructed to respond. In a typical case, often referred to as a “Go—No Go” test, the stimuli are of two types (the “Go” and “No Go” stimuli); the subject is instructed to respond only to the “Go” stimulus, and not to respond or “pass” when presented with the “No Go” stimulus. Data collected for each stimulus presented consists of the type of the stimulus; whether or not the subjects responded; and, if so, how long they took to respond. The continuous performance test has been in use since the 1950s.
(§2) Parkinson's disease (PD) patients participated in a double-blind, crossover study to assess the effect of co-administration of an A2a antagonist with a dopamine precursor on cognition and motor function. The A2a antagonist was 4-hydroxy-4-methyl-piperidine-1-carboxylic acid-(4-methoxy-7-morpholin-4-yl-benzothiazol-2-yl)-amide and the dopamine precursor was levodopa.
(§3) The patients were randomly allocated to 1 week of 4-hydroxy-4-methyl-piperidine-1-carboxylic acid-(4-methoxy-7-morpholin-4-yl-benzothiazol-2-yl)-amide and levodopa, 1 week washout (levodopa only), then 1 week placebo plus levodopa or the reverse order. Optimal levodopa doses were established for each patient according to normal clinical practice. Active drug was administered at 60 mg bid (N=14) or 20 mg bid (N=12) of 4-hydroxy-4-methyl-piperidine-1-carboxylic acid-(4-methoxy-7-morpholin-4-yl-benzothiazol-2-yl)-amide. At the end of each treatment week, participants completed motor assessments, a Continuous Performance Test (CPT), a Go/No-Go (GNG) Test, and a 2-Back Test after overnight withdrawal of levodopa and again after intravenous (IV) infusion of a suboptimal level of levodopa.
Subjects monitored a visual display while single uppercase letters were presented one at a time interspersed with the number “5”. Participants were instructed to push a target response button at the occurrence of every letter (i.e., a “Go” response) but to withhold a response for the number 5 (i.e., a “No-Go” response). Target frequency was manipulated in a blocked fashion, with two levels of target frequency (83% letters: 17% “5”s; 50% letters: 50% “5”s).

Experiment [2] has the same test system. The experiment is described as follows: 2-Back Test in Parkinson's disease patients, double-blind crossover study. To be noted: either dose (60 mg bid, 20 mg bid) with levodopa; all p-values>0.05.
Source text: as §2, §3

The test system is the same in experiment [3]. Briefly: Continuous Performance Test (CPT) in Parkinson's disease patients, double-blind crossover study. The following applies: either dose (60 mg bid, 20 mg bid) with levodopa; all p-values>0.05.
Source text: as §1, §2
The patients were randomly allocated to 1 week of 4-hydroxy-4-methyl-piperidine-1-carboxylic acid-(4-methoxy-7-morpholin-4-yl-benzothiazol-2-yl)-amide and levodopa, 1 week washout (levodopa only), then 1 week placebo plus levodopa or the reverse order. […]

For experiment [4] the test system is unchanged. The experiment is described as follows: Participant-reported sleepiness in Parkinson's disease patients, double-blind crossover study. To be noted: compared to placebo.
Source text: as §2, §3

Experiment [5] shares this test system. Briefly: Motor assessments (tapping speed, UPDRS item) in Parkinson's disease patients, double-blind crossover study.
Source text: as §2, §3

Where [6] appears, read: FIG. 1 legend, A2a antagonist compared with placebo, dose not stated.

Turning to `COc1ccc(N2CCOCC2)c2sc(NC(=O)N3CCC(C)(O)CC3)nc12` [4-hydroxy-4-methyl-piperidine-1-carboxylic acid-(4-methoxy-7-morpholin-4-yl-benzothiazol-2-yl)-amide], the GNG reaction times entry in experiment [1] (20 mg bid for 1 week with levodopa, p=0.05, N=12) is given as “faster GNG reaction times”; in experiment [1] (60 mg bid for 1 week with levodopa, p<0.01, N=14) it was “faster GNG reaction times”. For the same compound, in experiment [1] (60 mg bid and 20 mg bid with levodopa, ps>0.25), the GNG accuracy result was “without reduced accuracy”. For the same compound, the “Go/No-Go task mistakes (FIG. 1)” value in experiment [1] (setting [6]) is reported as “fewer mistakes”. For the same compound, in experiment [1] (setting [6]), the “Go/No-Go task reaction time (FIG. 1)” value is “reaction times are faster”. For the same compound, the “effect on the 2-Back test” value in experiment [2] is on record as “no significant effects”. For the same compound, in experiment [3], the “effect on the CPT test” value is reported as “no significant effects”. The reported sleepiness result in experiment [4] (20 mg bid, p>0.05) is “no significant difference”; in experiment [4] (60 mg bid, before and after levodopa, p<0.05) it was “less sleepiness”. Further, the “rapidly alternating hand movements item from the UPDRS” value in experiment [5] (60 mg bid and levodopa, p=0.03) is on record as “significant”. In addition, the tapping speed entry in experiment [5] (60 mg bid, before and after levodopa, p: 0.05) is on record as “significant motor benefit”.
